Data from patent publication US12570648B2, “6,7-dihydro-5H-pyrido[2,3-c]pyridazine derivatives and related compounds as Bcl-xL protein inhibitors and pro-apoptotic agents for treating cancer” (LES LABORATOIRES SERVIER, priority 2019, dated 2026).
pIC50, pKi: −log10 of the molar value.

How the values were obtained:
[1] = biological target: His-His-(EK)-hsBCLXL(2-197)[N197C] (Homo sapiens (Human), UniProt Q07817, N197C); experiment: Fluorescence quenching assay; format: binding; settings: 1 nM Cy5-labelled protein, 400 nM PUMA peptide, 2 hours at 23° C.; KI determined from IC50
Summary of the method: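 Cy5-labelled BCL-xL (1 nM) with TQ5WS quencher-labelled PUMA peptide (400 nM); displacement by compound (11-point dilution) raises fluorescence. Buffer 10 mM HEPES, 150 mM NaCl, 0.05% Tween 20, pH 7.4, 5% DMSO; 2 h at 23° C, Ex 620/Em 680 nm. Ki derived from IC50.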

[2] = system: MOLT-4 cells; experiment: MOLT-4 cell viability using MTT assay; format: cell-based; settings: Homo sapiens, MOLT-4, 48 h, 48 h exposure
Experimental: MTT colorimetric assay is based on the mitochondrial reduction of tetrazolium salt by living cells.
Cells were cultured at 37° C. in a humidified atmosphere containing 5% CO2. […] At the end of incubation time, 15 μL of MTT solution (5 mg/ml) were added per well and the cells were incubated for another 4 h. […] IC50s were calculated using standard four-parametric curve fitting.

[3] = system: H146 cells; experiment: H146 cell viability using MTT assay; format: cell-based; settings: Homo sapiens, NCI-H146, 48 h exposure
Experimental: MTT colorimetric assay is based on the mitochondrial reduction of tetrazolium salt by living cells. The viable cell number is proportional to the production of formazan salts, which can be read spectrophotometrically at 540 nm.
MOLT-4 and H146 cells were purchased from ATCC and cultivated in RPMI 1640 supplemented with 10% heat inactivated fetal bovine serum, penicillin (100 IU/ml), streptomycin (100 μg/ml) and L-glutamine (2 mM). Cells were cultured at 37° C. in a humidified atmosphere containing 5% CO2. Cells were seeded in 96 microwell plates (150p per well) and exposed to the compounds for 48 h (3.16 fold serially diluted; 9 concentrations each, triplicates). At the end of incubation time, 15 μL of MTT solution (5 mg/ml) were added per well and the cells were incubated for another 4 h. Then, 100 μL of 10% Sodium Dodecyl Sulfate (SDS)/HCl 10 mM were added per well and the plate was incubated overnight, before measurement of optical density at 540 nm. IC50s were calculated using standard four-parametric curve fitting.

His-His-(EK)-hsBCLXL(2-197)[N197C], sequence (Q07817 2-197 N197C): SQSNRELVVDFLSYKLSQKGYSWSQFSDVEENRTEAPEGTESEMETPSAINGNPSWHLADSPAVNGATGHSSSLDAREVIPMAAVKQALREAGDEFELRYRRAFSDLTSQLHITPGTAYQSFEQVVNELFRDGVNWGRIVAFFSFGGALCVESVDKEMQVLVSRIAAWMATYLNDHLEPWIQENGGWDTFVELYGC

| SMILES | pKi [1] | pIC50 [2] | pIC50 [3] |
| --- | --- | --- | --- |
| CNCC#Cc1ccc(OCCCc2sc(N3CCc4c3nnc(Nc3nc5ccccc5s3)c4C)nc2C(=O)O)c(F)c1 [Example 37, 2-[3-(1,3-Benzothiazol-2-ylamino)-4-methyl-5,6-dihydropyrrolo[2,3-c]pyridazin-7-yl]-5-[3-[2-fluoro-4-[3-(methylamino)prop-1-ynyl]phenoxy]propyl]thiazole-4-carboxylic acid] | 11.11 | 8.34 | 7.99 |
| CNCC#Cc1ccc(OCCCc2sc(N3CC(O)Cc4c3nnc(Nc3nc5ccccc5s3)c4C)nc2C(=O)O)c(F)c1 (centres unmarked) [Example 38, 2-[3-(1,3-Benzothiazol-2-ylamino)-6-hydroxy-4-methyl-6,7-dihydro-5H-pyrido[2,3-c]pyridazin-8-yl]-5-[3-[2-fluoro-4-[3-(methylamino)prop-1-ynyl]phenoxy]propyl]thiazole-4-carboxylic acid] | 11.54 | 7.23 | 7.66 |
| CNCCN[C@@H]1Cc2c(nnc(Nc3nc4ccccc4s3)c2C)N(c2nc(C(=O)O)c(CCCOc3ccc(CCCN(C)C)cc3F)s2)C1 [Example 39, 2-[(6R)-3-[(1,3-Benzothiazol-2-yl)amino]-4-methyl-6-{[2-(methylamino)ethyl]amino}-5H,6H,7H,8H-pyrido[2,3-c]pyridazin-8-yl]-5-(3-{4-[3-(dimethylamino)propyl]-2-fluorophenoxy}propyl)-1,3-thiazole-4-carboxylic acid] | 11.01 | 7.43 | 7.47 |
| Cc1c(Nc2nc3ccccc3s2)nnc2c1CCCN2c1nc(C(=O)O)c(CCCOc2ccc(C#CCN(C)C)cc2C(F)(F)F)s1 [Example 40, 2-{3-[(1,3-Benzothiazol-2-yl)amino]-4-methyl-5H,6H,7H,8H-pyrido[2,3-c]pyridazin-8-yl}-5-(3-{4-[3-(dimethylamino)prop-1-yn-1-yl]-2-(trifluoromethyl)phenoxy}propyl)-1,3-thiazole-4-carboxylic acid] | 10.24 | 8.09 | 7.68 |
| Cc1c(Nc2nc3ccccc3s2)nnc2c1CCCN2c1nc(C(=O)O)c(CCCOc2ccc(C#CC(C)N3CCN(C)CC3)cc2F)s1 (centres unmarked) [Example 41, 2-[3-(1,3-Benzothiazol-2-ylamino)-4-methyl-6,7-dihydro-5H-pyrido[2,3-c]pyridazin-8-yl]-5-[3-[2-fluoro-4-[3-(4-methylpiperazin-1-yl)but-1-ynyl]phenoxy]propyl]thiazole-4-carboxylic acid] | 11.60 | 9.44 | 8.44 |
| Cc1c(Nc2nc3ccccc3s2)nnc2c1CCCN2c1nc(C(=O)O)c(CCCOc2ccc(C#CCN3CCCC3)cc2F)s1 [Example 42, 2-[3-(1,3-Benzothiazol-2-ylamino)-4-methyl-6,7-dihydro-5H-pyrido[2,3-c]pyridazin-8-yl]-5-[3-[2-fluoro-4-(3-pyrrolidin-1-ylprop-1-ynyl)phenoxy]propyl]thiazole-4-carboxylic acid] | 11.55 | 9.49 | 8.52 |
| Cc1c(Nc2nc3ccccc3s2)nnc2c1CCCN2c1nc(C(=O)O)c(CCCOc2ccc(C#CC(C)N3CCCC3)cc2F)s1 (centres unmarked) [Example 43, 2-[3-(1,3-Benzothiazol-2-ylamino)-4-methyl-6,7-dihydro-5H-pyrido[2,3-c]pyridazin-8-yl]-5-[3-[2-fluoro-4-(3-pyrrolidin-1-ylbut-1-ynyl)phenoxy]propyl]thiazole-4-carboxylic acid] | 11.51 | 8.77 | 7.93 |
| Cc1c(Nc2nc3ccccc3s2)nnc2c1CCCN2c1nc(C(=O)O)c(CCCOc2ccc(OCCN(C)C)cc2)s1 [Example 44, 2-{3-[(1,3-Benzothiazol-2-yl)amino]-4-methyl-5H,6H,7H,8H-pyrido[2,3-c]pyridazin-8-yl}-5-(3-{4-[2-(dimethylamino)ethoxy]phenoxy}propyl)-1,3-thiazole-4-carboxylic acid] | 11.82 | 8.39 | 7.97 |
| Cc1c(Nc2nc3ccccc3s2)nnc2c1CCCN2c1nc(C(=O)O)c(CCCOc2ccc(C#CCN3CCC3)cc2F)s1 [Example 45, 5-(3-{4-[3-(Azetidin-1-yl)prop-1-yn-1-yl]-2-fluorophenoxy}propyl)-2-{3-[(1,3-benzothiazol-2-yl)amino]-4-methyl-5H,6H,7H,8H-pyrido[2,3-c]pyridazin-8-yl}-1,3-thiazole-4-carboxylic acid] | 11.31 | 9.26 | 7.97 |
| Cc1c(Nc2nc3ccccc3s2)nnc2c1CCCN2c1nc(C(=O)O)c(CCCOc2ccc(C#CCN3CCCCC3)cc2F)s1 [Example 46, 2-[3-(1,3-Benzothiazol-2-ylamino)-4-methyl-6,7-dihydro-5H-pyrido[2,3-c]pyridazin-8-yl]-5-[3-[2-fluoro-4-[3-(1-piperidyl)prop-1-ynyl]phenoxy]propyl]thiazole-4-carboxylic acid] | 10.82 | 8.92 | 7.95 |
| Cc1c(Nc2nc3ccccc3s2)nnc2c1CCCN2c1nc(C(=O)O)c(CCCOc2ccc(C#CCN3CCOCC3)cc2F)s1 [Example 47, 2-[3-(1,3-Benzothiazol-2-ylamino)-4-methyl-6,7-dihydro-5H-pyrido[2,3-c]pyridazin-8-yl]-5-[3-[2-fluoro-4-(3-morpholinoprop-1-ynyl)phenoxy]propyl]thiazole-4-carboxylic acid] | 11.05 | 9.02 | 8.14 |
| Cc1c(Nc2nc3ccccc3s2)nnc2c1CCCN2c1nc(C(=O)O)c(CCCOc2ccc(C#CCN3CCN(C)CC3)cc2F)s1 [Example 48, 2-[3-(1,3-Benzothiazol-2-ylamino)-4-methyl-6,7-dihydro-5H-pyrido[2,3-c]pyridazin-8-yl]-5-[3-[2-fluoro-4-[3-(4-methylpiperazin-1-yl)prop-1-ynyl]phenoxy]propyl]thiazole-4-carboxylic acid] | 11.80 | 9.51 | 8.65 |
| Cc1c(Nc2nc3ccccc3s2)nnc2c1CCCN2c1nc(C(=O)O)c(CCCOc2ccc(C#CCN3CCC(F)(F)CC3)cc2F)s1 [Example 49, 2-{3-[(1,3-Benzothiazol-2-yl)amino]-4-methyl-5H,6H,7H,8H-pyrido[2,3-c]pyridazin-8-yl}-5-(3-{4-[3-(4,4-difluoropiperidin-1-yl)prop-1-yn-1-yl]-2-fluorophenoxy}propyl)-1,3-thiazole-4-carboxylic acid] | 10.19 | 8.67 | 7.48 |
| Cc1c(Nc2nc3ccccc3s2)nnc2c1CCCN2c1nc(C(=O)O)c(CCCOc2ccc(C#CCN3CCCC(F)(F)C3)cc2F)s1 [Example 50, 2-{3-[(1,3-Benzothiazol-2-yl)amino]-4-methyl-5H,6H,7H,8H-pyrido[2,3-c]pyridazin-8-yl}-5-(3-{4-[3-(3,3-difluoropiperidin-1-yl)prop-1-yn-1-yl]-2-fluorophenoxy}propyl)-1,3-thiazole-4-carboxylic acid] | 10.15 | 8.43 | 7.06 |
| Cc1c(Nc2nc3ccccc3s2)nnc2c1CCCN2c1nc(C(=O)O)c(CCCOc2ccc(C#CCN(C)C)cc2Cl)s1 [Example 51, 2-{3-[(1,3-Benzothiazol-2-yl)amino]-4-methyl-5H,6H,7H,8H-pyrido[2,3-c]pyridazin-8-yl}-5-(3-{2-chloro-4-[3-(dimethylamino)prop-1-yn-1-yl]phenoxy}propyl)-1,3-thiazole-4-carboxylic acid] | 10.92 | 8.60 | 8.02 |
| Cc1c(Nc2nc3ccccc3s2)nnc2c1CCCN2c1nc(C(=O)O)c(CCCOc2ccc(OCCN3CCCC3)cc2)s1 [Example 52, 2-{3-[(1,3-Benzothiazol-2-yl)amino]-4-methyl-5H,6H,7H,8H-pyrido[2,3-c]pyridazin-8-yl}-5-(3-{4-[2-(pyrrolidin-1-yl)ethoxy]phenoxy}propyl)-1,3-thiazole-4-carboxylic acid] | 11.89 | 8.62 | 7.97 |
| Cc1c(Nc2nc3ccccc3s2)nnc2c1CCCN2c1nc(C(=O)O)c(CCCOc2ccc(CCN(C)C)cc2F)s1 [Example 53, 2-{3-[(1,3-Benzothiazol-2-yl)amino]-4-methyl-5H,6H,7H,8H-pyrido[2,3-c]pyridazin-8-yl}-5-(3-{4-[2-(dimethylamino)ethyl]-2-fluorophenoxy}propyl)-1,3-thiazole-4-carboxylic acid] | 11.18 | 8.01 | 7.83 |
| Cc1c(Nc2nc3ccccc3s2)nnc2c1CCCN2c1nc(C(=O)O)c(CCCOc2ccc(C#CCN3C[C@@H]4[C@H](C3)C4(F)F)cc2F)s1 [Example 63, 2-[3-(1,3-Benzothiazol-2-ylamino)-4-methyl-6,7-dihydro-5H-pyrido[2,3-c]pyridazin-8-yl]-5-[3-[4-[3-[(1S,5R)-6,6-difluoro-3-azabicyclo[3.1.0]hexan-3-yl]prop-1-ynyl]-2-fluoro-phenoxy]propyl]thiazole-4-carboxylic acid] | 10.09 |  | 7.69 |
